US6737383B1, “Herbicidal oxadiazolidines” (priority 1999, dated 2004)

Columns and labels:
[1] = system: winter barley; assay: Test E winter barley; assay type: in vivo, Hordeum vulgare; details: Preemergence
[2] = system: Italian ryegrass; assay: Test E Italian ryegrass; assay type: in vivo, Lolium multiflorum; details: Preemergence
[3] = system: bamyardgrass; assay: Test B flood test barnyardgrass; assay type: in vivo, Echinochloa crus-galli; details: for Plant response rating, Barnyardgrass (0 to 10 scale, 0 is no effect, 10 is complete control) / Barnyardgrass plant response rating (0 to 10 scale, 0 is no effect, 10 is complete control): visual evaluation after twelve to sixteen days; for Barnyardgrass plant response rating (0 to 10 scale, 0 is no effect, 10 is complete control): under heading Pre-emergence
How it was run: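 Flood test on plants grown to the 2-leaf stage; treated plants kept in greenhouse twelve to sixteen days, then visually rated against controls on a 0 (no effect) to 10 (complete control) scale.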

[4] = system: winter wheat; assay: Test E winter wheat; assay type: in vivo, Triticum aestivum; details: Preemergence
[5] = system: wild oat; assay: Test E wild oat; assay type: in vivo, Avena fatua; details: Preemergence
[6] = system: surinam grass; assay: Test B pre/postemergence surinam grass; assay type: in vivo, Brachiaria decumbens; details: for B. signalgrass plant response rating: scale of 0 to 10 where 0 is no effect and 10 is complete control
How it was run: (§1)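 Response is a visual 0-to-10 score relative to untreated plants, where 0 means no effect and 10 means complete control, taken twelve to sixteen days after application. Treatments went onto soil at planting and onto foliage of 1- to 4-leaf plants, using a surfactant-containing non-phytotoxic solvent.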

[7] = system: sugar beet; assay: Test B pre/postemergence sugar beet; assay type: in vivo, Beta vulgaris; details: for Sugarbeets plant response rating: scale of 0 to 10 where 0 is no effect and 10 is complete control
How it was run: as §1

[8] = system: green foxtail; assay: Test E green foxtail; assay type: in vivo, Setaria viridis; details: Preemergence
[9] = system: blackgrass; assay: Test E blackgrass; assay type: in vivo, Alopecurus myosuroides; details: Preemergence
[10] = system: blackgrass; assay: Test B pre/postemergence blackgrass; assay type: in vivo, Alopecurus myosuroides; details: for Blackgrass plant response rating: scale of 0 to 10 where 0 is no effect and 10 is complete control
How it was run: as §1

[11] = system: winter wheat; assay: Test E winter wheat; assay type: in vivo, Triticum aestivum; details: Postemergence, 0 to 100 scale, 0 is no effect, 100 is complete control
How it was run: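 Compounds formulated in non-phytotoxic solvent mixture with surfactant; for postemergence, sprayed on plants at 1- to 4-leaf stage grown in 60:40 sandy loam/greenhouse potting mix. Kept in greenhouse ~21 to 28 days, then visually rated against untreated controls.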

[12] = Rate 125 g/ha, 0 to 100 scale (0 no effect, 100 complete control)
[13] = Rate 500 g/ha, 0 to 100 scale (0 no effect, 100 complete control)
[14] = Rate 62 g/ha, flood test species, Pre-emergence
[15] = Rate 125 g/ha, flood test species
[16] = Rate 250 g/ha, Pre-emergence, flood-test species, scale 0 to 10, 0 is no effect, 10 is complete control
[17] = Rate 500 g/ha, Pre-emergence, flood test species, scale 0 to 10 (0 no effect, 10 complete control)
[18] = Postemergence, Rate 125 g/ha, scale 0 to 10, 0 is no effect, 10 is complete control
[19] = Postemergence, Rate 250 g/ha, scale 0 to 10, 0 is no effect, 10 is complete control
[20] = Preemergence, Rate 62 g/ha, scale 0 to 10 (0 no effect, 10 complete control)
[21] = Rate 500 g/ha, Postemergence, scale 0 to 10, 0 no effect, 10 complete control

CC1CC1n1c(=O)on(C(=O)N(c2ccc(F)cc2F)C(C)C)c1=O (centres unmarked) [Compound 372]
Plant response rating, Barley (winter) [1, 12]: 60 | Plant response rating, Barley (winter) ([1]; Rate 250 g/ha, 0 to 100 scale, 0 no effect, 100 complete control): 70 | Plant response rating, Barley (winter) [1, 13]: 70 | Plant response rating, I. Ryegrass [2, 12]: 60 | Plant response rating, I. Ryegrass ([2]; Rate 250 g/ha, 0 to 100 scale): 70 | Plant response rating, I. Ryegrass [2, 13]: 85 | Plant response rating, Barnyardgrass ([3]; Postemergence (flood test), Rate 125 g/ha, scale 0 to 10, 0 is no effect, 10 is complete control): 0 | Barnyardgrass plant response rating ([3]; Rate 62 g/ha, Postemergence (flood test species), scale of 0 to 10 where 0 is no effect and 10 is complete control): 0 | Plant response rating, Barnyardgrass (0 to 10 scale, 0 is no effect, 10 is complete control) [3, 14]: 0 | Barnyardgrass plant response rating (0 to 10 scale, 0 is no effect, 10 is complete control) [3, 15]: 0 | Barnyardgrass plant response rating [3, 16]: 0 | Plant response rating, Barnyardgrass ([3]; Rate 500 g/ha, listed under Postemergence (flood test species), scale 0 to 10, 0 no effect, 10 complete control): 6 | Barnyardgrass plant response rating [3, 17]: 0 | Plant response rating, Barnyardgrass ([3]; flood test species, listed under Postemergence, Rate 250 g/ha, scale 0 to 10, 0 is no effect, 10 is complete control): 4 | Plant response rating, Wheat (winter) [4, 12]: 60 | Plant response rating, Wheat (winter) ([4]; Rate 250 g/ha, 0 to 100 scale): 50 | Plant response rating, Wheat (winter) [4, 13]: 70 | Plant response rating, Wild oat [5, 12]: 50 | Plant response rating, Wild oat ([5]; Rate 250 g/ha, 0 to 100 scale): 60 | Plant response rating, Wild oat [5, 13]: 80 | Plant response rating, B. signalgrass [6, 18]: 2 | Plant response rating, B. signalgrass [6, 19]: 4 | Plant response rating, B. signalgrass [6, 20]: 0 | B. signalgrass plant response rating (0 to 10 scale, 0 is no effect, 10 is complete control) ([6]; Preemergence, Rate 125 g/ha): 4 | B. signalgrass plant response rating ([6]; Preemergence, Rate 250 g/ha): 6 | B. signalgrass plant response rating ([6]; Preemergence, Rate 500 g/ha): 8 | B. signalgrass plant response rating ([6]; Rate 62 g/ha, Postemergence): 0 | Plant response rating, B. signalgrass [6, 21]: 7 | Plant response rating, Sugarbeets [7, 18]: 2 | Plant response rating, Sugarbeets [7, 19]: 2 | Plant response rating, Sugarbeets [7, 20]: 2 | Sugarbeets plant response rating (0 to 10 scale) ([7]; Preemergence, Rate 125 g/ha): 4 | Sugarbeets plant response rating ([7]; Preemergence, Rate 250 g/ha): 10 | Sugarbeets plant response rating ([7]; Preemergence, Rate 500 g/ha): 10 | Sugarbeets plant response rating ([7]; Rate 62 g/ha, Postemergence): 0 | Plant response rating, Sugarbeets [7, 21]: 8 | Plant response rating, Green foxtail [8, 12]: 60 | Plant response rating, Green foxtail ([8]; Rate 250 g/ha, 0 to 100 scale): 60 | Plant response rating, Green foxtail [8, 13]: 100 | Plant response rating, Blackgrass [9, 12]: 70 | Plant response rating, Blackgrass ([9]; Rate 250 g/ha, 0 to 100 scale): 60 | Plant response rating, Blackgrass [9, 13]: 100 | Plant response rating, Blackgrass [10, 18]: 4 | Plant response rating, Blackgrass [10, 19]: 7 | Plant response rating, Blackgrass [10, 20]: 5 | Blackgrass plant response rating (0 to 10 scale) ([10]; Preemergence, Rate 125 g/ha): 6 | Blackgrass plant response rating ([10]; Preemergence, Rate 250 g/ha): 10 | Blackgrass plant response rating ([10]; Preemergence, Rate 500 g/ha): 10 | Blackgrass plant response rating ([10]; Rate 62 g/ha, Postemergence): 4 | Plant response rating, Blackgrass [10, 21]: 10 | Plant response rating, Wheat (winter) ([11]; Rate 125 g/ha): 65 | Plant response rating, Wheat (winter) ([11]; Rate 250 g/ha): 70 | Plant response rating, Wheat (winter) ([11]; Rate 500 g/ha): 80

CC(C)N(C(=O)n1oc(=O)n(CC2CCOC2)c1=O)c1ccc(F)cc1 (centres unmarked) [Compound 375]
Plant response rating, Barley (winter) [1, 12]: 35 | Plant response rating, Barley (winter) [1, 13]: 30 | Plant response rating, I. Ryegrass [2, 12]: 50 | Plant response rating, I. Ryegrass ([2]; Rate 250 g/ha, 0 to 100 scale): 70 | Plant response rating, I. Ryegrass [2, 13]: 65 | Plant response rating, Barnyardgrass (0 to 10 scale, 0 is no effect, 10 is complete control) [3, 14]: 0 | Barnyardgrass plant response rating (0 to 10 scale, 0 is no effect, 10 is complete control) [3, 15]: 0 | Barnyardgrass plant response rating [3, 16]: 0 | Barnyardgrass plant response rating [3, 17]: 0 | Plant response rating, Wheat (winter) [4, 12]: 30 | Plant response rating, Wheat (winter) ([4]; Rate 250 g/ha, 0 to 100 scale): 40 | Plant response rating, Wheat (winter) [4, 13]: 50 | Plant response rating, Wild oat [5, 12]: 55 | Plant response rating, Wild oat ([5]; Rate 250 g/ha, 0 to 100 scale): 60 | Plant response rating, Wild oat [5, 13]: 70 | Plant response rating, B. signalgrass [6, 18]: 0 | Plant response rating, B. signalgrass [6, 19]: 2 | Plant response rating, B. signalgrass [6, 20]: 0 | B. signalgrass plant response rating (0 to 10 scale, 0 is no effect, 10 is complete control) ([6]; Preemergence, Rate 125 g/ha): 0 | B. signalgrass plant response rating ([6]; Preemergence, Rate 250 g/ha): 4 | B. signalgrass plant response rating ([6]; Preemergence, Rate 500 g/ha): 8 | B. signalgrass plant response rating ([6]; Rate 62 g/ha, Postemergence): 0 | Plant response rating, B. signalgrass [6, 21]: 8 | Plant response rating, Sugarbeets [7, 18]: 0 | Plant response rating, Sugarbeets [7, 19]: 0 | Plant response rating, Sugarbeets [7, 20]: 0 | Sugarbeets plant response rating (0 to 10 scale) ([7]; Preemergence, Rate 125 g/ha): 2 | Sugarbeets plant response rating ([7]; Preemergence, Rate 250 g/ha): 4 | Sugarbeets plant response rating ([7]; Preemergence, Rate 500 g/ha): 7 | Sugarbeets plant response rating ([7]; Rate 62 g/ha, Postemergence): 0 | Plant response rating, Sugarbeets [7, 21]: 3 | Plant response rating, Green foxtail [8, 12]: 50 | Plant response rating, Green foxtail ([8]; Rate 250 g/ha, 0 to 100 scale): 60 | Plant response rating, Green foxtail [8, 13]: 70 | Plant response rating, Blackgrass [9, 12]: 20 | Plant response rating, Blackgrass ([9]; Rate 250 g/ha, 0 to 100 scale): 60 | Plant response rating, Blackgrass [9, 13]: 65 | Plant response rating, Blackgrass [10, 18]: 5 | Plant response rating, Blackgrass [10, 19]: 5 | Plant response rating, Blackgrass [10, 20]: 3 | Blackgrass plant response rating (0 to 10 scale) ([10]; Preemergence, Rate 125 g/ha): 5 | Blackgrass plant response rating ([10]; Preemergence, Rate 250 g/ha): 9 | Blackgrass plant response rating ([10]; Preemergence, Rate 500 g/ha): 10 | Blackgrass plant response rating ([10]; Rate 62 g/ha, Postemergence): 2 | Plant response rating, Blackgrass [10, 21]: 8 | Plant response rating, Wheat (winter) ([11]; Rate 125 g/ha): 35 | Plant response rating, Wheat (winter) ([11]; Rate 250 g/ha): 35 | Plant response rating, Wheat (winter) ([11]; Rate 500 g/ha): 50
